Test results taken from patent US20260159474A1, “Aminoindane Compounds and Compositions and Methods of Their Therapeutic Use” (Solvonis Therapeutics Ireland Holdings Limited, priority 2021, published 2026).
Like-named read-outs stand apart in the source and are kept apart here.

What was measured:
[1] = In vivo pharmacokinetics and brain penetration in rats after IV administration; conditions: rat; for Kp at 2 h: 2 hours post-administration, read-out: brain to plasma ratio; for Vd: read-out: Vss
Procedure: Group 1: Therapeutic compounds were administered via the IV route to three rats at a target dose level of 0.5 mg/kg. Blood and brain samples were collected at 2 h after IV administration. Group 2: Therapeutic compounds were administered via the IV route to three rats (brain penetration group) at a target dose level of 0.5 mg/kg. Blood and brain samples were collected at 2 h after IV administration. Group 3: Therapeutic compounds were orally administered to three rats at a target dose level of 1 mg/kg.
All test formulations were prepared on the day of administration prior to dosing, stored at room temperature, and used as soon as possible. Formulations were prepared and administered by volume IV dosing. Actual body weights were determined on the day of dose administration, and the dose volumes were adjusted to the weight of the animal at the time of dose administration.
Blood was collected into K3 EDTA tubes at each of the following time points post-administration:
Group 1 (IV): 0.083, 0.33, 1, 2, 4, 6, 8, and 24 hours after dosing Group 2 (IV): 2 hours after dosing for terminal brain analysis
All blood samples were thoroughly and gently mixed following collection and placed on wet ice. Within 0.5 h of collection, blood was centrifuged (3000 g for 10 minutes at approximately 4° C.). Within 0.5 hours, 20 μL of each plasma sample was transferred into micronic tubes containing 80 μL of 0.1N Hepes buffer (pH 7.0-7.5). Residual plasma was transferred in micronic tubes as a second aliquot.
Brain specimens were diluted with 4 volumes of 0.1 N Hepes buffer and homogenized using the Precellys system. Blood and brain samples were assayed using an optimized method based on protein precipitation with acetonitrile followed by HPLC/MS-MS analysis. Given the unknown stability of the analytes in blood and brain, calibration standards (CS) and quality control samples (QC) were prepared in blood and brain samples on the day of dosing and stored together with study samples. It is assumed that this procedure accounted for any possible analyte degradation.
Study samples, CS, QC, and blanks were spiked with an internal standard (IS), to improve the precision of the assay. Study samples were analyzed together with CS, QC and blank samples (including double blanks). From the calibration curve, the linear range of the analytical method was determined and the lower/upper limits of quantitation were specified.
The results of blood and brain specimens were subjected to non-compartmental pharmacokinetic analysis using Phoenix WinNonlin 6.3, with the following parameters reported: Calculated concentration of test items in the corresponding formulation (expressed as mg/mL), dose levels (expressed as mg/kg) for each compound, actual collection times (expressed as hh: mM), blood concentrations (expressed as ng/ml) for each compound, brain concentrations (expressed as ng/g) for each compound, PK parameters (iv: Cmax, AUC, CLp, Vss, t1/2, if applicable; oral (PO): Cmax, tmax, AUC, F %, Fa %, Eh, AUC BB ratio, if applicable) for each compound, and abnormal clinical signs and relevant findings, if any.

[2] = system: extracellular noradrenaline (NE) in the nucleus accumbens (NAcc); experiment: In vivo microdialysis in rat nucleus accumbens, norepinephrine; set-up: species or system Sprague Dawley rats; conditions: 7 mg/kg I.P.; for time of peak NE level / peak NE level: rat NAcc microdialysis; for peak NE level: baseline = 100%; for Norepinephrine (NE) level (% from baseline): rat NAcc
Procedure: Methods and Procedure: This study was conducted in compliance with previously described procedures to assure data integrity, adherence to GLP regulations, and standard preclinical study and surgery procedures. The in vivo microdialysis technique was applied to measure the over-time variations of DA, 5-HT, and NE extracellular (EC) concentrations in conscious, freely-moving Sprague Dawley rats. Levels of the neurotransmitters in microdialysis samples were determined using LC-MS/MS analysis. The experiment was also conducted with MDMA for comparative purposes.
As it relates to cannula implantation, the rats were anesthetized with isoflurane 4% in oxygen (2-2.5 L/min), then the isoflurane concentration 2-2.5% was maintained via a nose cone adapted to the stereotaxic apparatus. The rats were treated with meloxicam (0.2 mg/kg, subcutaneously, sc; Meloxidolor) and amoxicilline (150 mg/kg, sc, Betamox LA). The skull was then shaved and disinfected. Rats were then placed in a stereotaxic apparatus for small animals. One vertical guide cannula was inserted through a 1 mm hole drilled on the exposed skull. Coordinates, with respect to the bregma to target specific brain areas, followed indications from stereotaxic atlas of the rat brain. Specifically a guide cannula (MAB 4.12.IC, Agn Tho's AB, Lidinga, Sweden) was inserted in the NAcc (anteroposterior+1.6; lateral −1.6; dorsoventral −6.0). The guide cannula was then secured with dental cement and 2-4 screws. At the end of the surgery the animal was isolated in a single cage during recovery, for a period of at least one week, during which animal health conditions were checked twice daily and the weight recorded twice a week. Animals continued to be housed singly throughout the experiment. One day before the experiment the cannula stylet was removed and a microdialysis probe with a dialyzing length of 2 mm (MAB 4.12.2 Cu, Agn Tho's AB, Lidingo, Sweden) was inserted. Probes can be re-used 2 times for 2 experimental sessions after appropriate cleaning with fresh milliQ water.
Post-surgery, the rats were maintained in a heating chamber prior to waking up in order to avoid hypothermia that could be caused by anaesthesia. 5 mL of physiologic solution was subcutaneously administered immediately after surgery, and once/day for 2-3 days, if signs of dehydration are noticed. Meloxicam (Meloxidolor) 0.2 mg/kg was again administered subcutaneously the day after surgery as well as after 48 h after surgery together with Amoxicilline Long Acting (Betamox LA) 150 mg/kg. Health status and body weight was checked every day during the first week.
The animals were treated with the therapeutic compounds, and MDMA, or their vehicle (saline) according to a Latin square design over 5 separate experimental days (one day/week). The treatments were administered in a volume of 1 mL/kg intraperitoneally.
On the day of the experiment, each animal was taken into the laboratory in its home cage. Inlet tubing of the probe was attached to a dual quartz-lined two channel liquid swivel mounted on a low mass spring counterbalance arm which, in turn, was connected to a gas-tight syringe on a microinfusion pump. […] An equilibration period of about two hours of perfusion was allowed before collecting samples. Following the equilibration period, 4 basal samples were collected for each experimental animal followed by further 10 post-treatment samples. Samples were collected every 20 minutes (up to 3 hours and 20 minutes post-treatment) by means of a refrigerated auto-sampler (Univentor 820 Microsampler, AgnTho's, Sweden) maintained at +8 “C. At the end of all experimental sessions, 2 μL of 0.1% methylene blue solution was injected through the microdialysis probe, animals were euthanized, and their brains removed to confirm the correct probe-position.
As mentioned, the concentration of DA, 5-HT and NE in CSF samples were determined using an optimized method based on LC-MS/MS analysis. […]

[3] = brain and plasma, 0.5 mg/kg, IV
[4] = plasma, IV, 0.5 mg/kg, read-out: Clearance
[5] = plasma, IV, 0.5 mg/kg, read-out: Cmax

Compound	Kp at 2 h [1, 3]	AUC(0-inf) ([1]; plasma, IV, 0.5 mg/kg) [ng·h/mL]	AUC(0-t) ([1]; plasma, IV, 0.5 mg/kg) [ng·h/mL]	half-life ([1]; plasma, IV, 0.5 mg/kg) [min]	clearance [1, 4] [mL/min/kg]	Cmax [1, 5] [ng/mL]	time of peak NE level [2] [min]	peak NE level [2] [%]	Norepinephrine (NE) level (% from baseline) ([2]; 0 min (basal sample)) [%]	Norepinephrine (NE) level (% from baseline) ([2]; 20 min post-admin) [%]	Norepinephrine (NE) level (% from baseline) ([2]; 40 min post-admin) [%]	Norepinephrine (NE) level (% from baseline) ([2]; 60 min post-admin) [%]	Norepinephrine (NE) level (% from baseline) ([2]; 80 min post-admin) [%]	Norepinephrine (NE) level (% from baseline) ([2]; 100 min post-admin) [%]	Norepinephrine (NE) level (% from baseline) ([2]; 120 min post-admin) [%]	Norepinephrine (NE) level (% from baseline) ([2]; 140 min post-admin) [%]	Norepinephrine (NE) level (% from baseline) ([2]; 160 min post-admin) [%]	Norepinephrine (NE) level (% from baseline) ([2]; 180 min post-admin) [%]	Norepinephrine (NE) level (% from baseline) ([2]; 200 min post-admin) [%]	Norepinephrine (NE) level (% from baseline) ([2]; −20 min (basal sample)) [%]	other results
COC(=O)c1ccc2c(c1)CC(N)C2 (stereo not drawn) [CMP-405, 2-aminoindane-5-methylcarboxylate]	2.12	334	330	19.8	25.5	808	60	188	101	106	167	188	147	136	125	107	122	105	106	99	Vd ([1]; plasma, IV, 0.5 mg/kg): 0.602 L/kg; Clast ([1]; IV, 0.5 mg/kg): 8.08 ng/mL; Tlast ([1]; IV, 0.5 mg/kg): 2 h
CNC(C)Cc1ccc2c(c1)OCO2 (stereo not drawn) [MDMA]							40	473	100	113	473	457	375	348	350	320	295	275	255	100	AUCinf ([1]; IV, 1 mg/kg): 384 ng·h/mL; AUClast ([1]; IV, 1 mg/kg): 367 ng·h/mL; Clast ([1]; IV, 1 mg/kg): 12.1 ng/mL; Cmax ([1]; IV, 1 mg/kg): 625 ng/mL; T1/2 ([1]; IV, 1 mg/kg): 57.2 min; Tlast ([1]; IV, 1 mg/kg): 4 h; Vss ([1]; IV, 1 mg/kg): 3.02 L/kg; clearance ([1]; IV, 1 mg/kg): 45.6 mL/min/kg
COc1ccc2c(c1)CC(N)C2 (stereo not drawn) [MEAI, 5-methoxy-2-aminoindane]	2.21	788	773	29.6	10.6	1400	40	366	97	132	366	295	208	194	187	167	140	149	133	103	Kp uu at 2 h ([1]; brain and plasma, intravenous, 0.5 mg/kg, assuming free plasma concentration equals total plasma concentration): 0.71; Vd ([1]; plasma, IV, 0.5 mg/kg): 0.376 L/kg; Clast ([1]; IV, 0.5 mg/kg): 24.7 ng/mL; Tlast ([1]; IV, 0.5 mg/kg): 3 h
